Patent publication US20080194640A1, “Optically Active Tetrahydronaphthalene Derivative” (priority 2005, published 2008)
Values after ≈ are worked out from the molar mass of the structure shown.

What was measured:
[1] = Dissolution test (JP Dissolution Test Method 2, paddle method); format: physicochemical; conditions: JP second fluid 900 ml, paddle 50 rpm, 37° C., about 10 mg based on free form
Protocol: The compounds obtained in Examples 22, 24 and 25, free base•Form-I crystal, and the racemate of the compound of Example 3 were subjected to a dissolution test, and the dissolution rate was compared. According to this test method, the amount of dissolution relative to the content of each compound in the test solution is expressed in the dissolution rate (%), which was measured over time.
For the method of adding each compound, the compound (about 10 mg based on free form) was precisely weighed and directly added to a vessel. As the test solution, The Japanese Pharmacopoeia second fluid (900 ml) was used, and the test was performed according to The Japanese Pharmacopoeia Dissolution Test Method 2 (Paddle Method) at 50 rpm. The test temperature was 37° C. After the start of the test, solution for dissolution (10 ml) was taken at suitable times, and a test solution (10 ml) heated to 37° C. was soon carefully added for compensation. The collected solution for dissolution was passed through a filter (DISMIC 13HP PTFE (0.45 μm); Toyo Roshi Kaisha). The filtrate in the early stage (5 ml) was removed, the subsequent filtrate (500 μl) was precisely measured, and the dilution solution (water/acetonitrile/trifluoroacetic acid mixture=500:500:1, 500 μl) was accurately added to give a sample solution.
Separately, about 10 mg of the free base•Form-I crystal was precisely weighed, and a dilution solution (water/acetonitrile/trifluoroacetic acid mixture=500:500:1) was added to 50 ml sharp. This solution (2.5 ml) was precisely measured, and a dilution solution (water/acetonitrile/trifluoroacetic acid mixture=500:500:1) was added to 50 ml sharp. This was used as the standard solution of free base•Form-I crystal (10 μg/ml). The sample solution and the standard solution were measured under the HPLC conditions shown below, the peak areas AT and AS of the free base•Form-I crystal in each solution were measured, and the dissolution rate was determined by the following formula.
The nth dissolution rate (%) of free base•Form-I crystal=Wn/W100%×100 • W1: the first dissolution amount (mg) of free base•Form-I crystal
=(900×AT1)×WS/AS/1000 • Wn: the nth (n>1) dissolution amount (mg) of free base•Form-I crystal
={900×ATn+10×(AT1+AT2 . . . +ATn−1)}×WS/AS/1000 • W100%: cast amount (mg) of drug substance • Ws: collected amount (mg) of free base•Form-I crystal standard product • As: peak area of free base•Form-I crystal in standard solution • AT1: peak area of free base•Form-I crystal in sample solution by the first sampling • ATn: peak area of free base•Form-I crystal in sample solution by the nth sampling. • For racemate, the dissolution rate was calculated based on the total value of S form and R form. […]

[2] = Solubility test (Japanese Pharmacopoeia Solution 2); format: physicochemical; conditions: pH 6.8, aqueous buffer, thermodynamic from solid; Japanese Pharmacopoeia Solution 2, 37° C., shaken 30 min; read-out: solubility after 30 min
Protocol: An adequate amount of a sample was taken, and a test solution (The Japanese Pharmacopoeia Solution 2) was added to each to a concentration of about 1 mg/ml. The sample was dispersed by ultrasonication for 2 min, shaken at 37° C. for 30 min, and the solution was filtered through DISMIC13HP ([…]). The filtrate in the early stage (3 ml) was removed, the subsequent filtrate (500 μl) was precisely measured, and the dilution solution (water/acetonitrile/trifluoroacetic acid mixture=500:500:1, 500 μl) was accurately added to give a sample solution. The sample solution and the standard solution prepared in Experimental Example 5 were subjected to the measurement under the similar HPLC conditions as in Experimental Example 5.

[3] = tested on: C5a stimulated neutrophil; assay: Production of reactive oxygen species in C5a-stimulated neutrophil; format: cell-based; conditions: human neutrophil, C5a 3 nmol/L, luminol luminescence, 37° C.; read-out: IC50 value, inhibition of production of reactive oxygen species in C5a stimulated neutrophil
Protocol: A neutrophil fraction was separately taken from human peripheral venous blood using Lympholyte-poly (Cedarlane), and suspended in Hank's Balanced Salt Solution (HBSS, GIBCO BRL) containing 1% fetal bovine serum (FBS) and 1 mmol/L luminol (Wako Pure Chemical Industries, Ltd.). Reactive oxygen species was measured using a luminometer (MicroLumat, Berthold) for 96-well plate. […] Then, 25 μL of C5a (final concentration 3 nmol/L) was added and luminescence produced by the reaction of the luminol and the reactive oxygen species was measured with the lapse of time for 15 min. The rate of inhibition (% inhibition) of the production of reactive oxygen species in C5a stimulated neutrophil by the test compound was calculated by the following formula, wherein the peak value of the production of reactive oxygen species derived by C5a without addition of the test compound is Max, the peak value of the production of reactive oxygen species without addition of the test compound and without C5a stimulation is Min, and the peak value of the production of reactive oxygen species derived by C5a with the addition of the test compound is Test. […]

## CCn1cc(CN(C(=O)C2CCCc3c(O)cccc32)c2ccc(C(C)C)nc2)cn1 (racemic) [racemate of the compound of Example 3, N-[(1-ethyl-1H-pyrazol-4-yl)methyl]-5-hydroxy-N-(6-isopropylpyridin-3-yl)-1,2,3,4-tetrahydronaphthalene-1-carboxamide, reference compound]
[1]
  dissolution rate (comparison): slowest
[2]
  solubility at 30 min: 31 µg/mL (≈ 74.1 µM)
[3]
  IC50: 5.9 nM
